Counter-ions that a name gives are not always drawn. Like-named read-outs stand apart in the source and are kept apart here.
Molecular target: human GlyT1c transporter (Homo sapiens (Human), UniProt P48067)
Assay: Radioligand binding assay using recombinant CHO cell membranes expressing human GlyT1
Details: read-out: radioligand binding Kiapp
From the text: 2. Radioligand binding assays using recombinant CHO cell membranes expressing human GlyT1: […]

[1] = human GlyT1c-expressing CHO cell membranes

human GlyT1c transporter, sequence (P48067 whole entry): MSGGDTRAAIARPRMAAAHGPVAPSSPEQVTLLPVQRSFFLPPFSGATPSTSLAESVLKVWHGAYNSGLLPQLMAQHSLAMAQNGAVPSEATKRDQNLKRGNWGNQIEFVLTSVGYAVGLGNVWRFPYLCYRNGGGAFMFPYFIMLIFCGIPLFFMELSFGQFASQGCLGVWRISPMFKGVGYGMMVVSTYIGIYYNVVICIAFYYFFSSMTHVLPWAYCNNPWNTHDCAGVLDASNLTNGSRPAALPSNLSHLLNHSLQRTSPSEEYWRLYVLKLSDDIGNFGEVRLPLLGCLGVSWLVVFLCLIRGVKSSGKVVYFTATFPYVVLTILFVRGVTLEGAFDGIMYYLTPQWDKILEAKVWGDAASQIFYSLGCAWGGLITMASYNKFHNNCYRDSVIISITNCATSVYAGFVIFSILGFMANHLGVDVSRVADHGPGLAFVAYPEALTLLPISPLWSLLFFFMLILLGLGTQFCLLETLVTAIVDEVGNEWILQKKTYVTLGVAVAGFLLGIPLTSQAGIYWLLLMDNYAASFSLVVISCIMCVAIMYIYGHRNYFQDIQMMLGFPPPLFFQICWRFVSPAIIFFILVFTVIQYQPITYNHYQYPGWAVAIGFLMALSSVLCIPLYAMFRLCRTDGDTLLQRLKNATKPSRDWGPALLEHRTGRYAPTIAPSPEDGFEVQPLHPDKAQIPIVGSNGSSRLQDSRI

Structure (SMILES) | Ki [1] | Ki
Cn1cnc(S(=O)(=O)NCc2ccc3c(c2)C(Cc2ccccc2)C(N2CCOCC2)CC3)c1 (stereo not shown) [Example 257, N-{[8-Benzyl-7-(morpholin-4-yl)-5,6,7,8-tetrahydronaphthalen-2-yl]methyl}-1-methyl-1H-imidazole-4-sulfonamide] | ≤ 0.1 µM | –
Cn1cc(S(=O)(=O)NCc2ccc3c(c2)C(Cc2ccccc2)C(N2CCOCC2)CC3)cn1 (stereo not shown) [Example 258, N-{[8-Benzyl-7-(morpholin-4-yl)-5,6,7,8-tetrahydronaphthalen-2-yl]methyl}-1-methyl-1H-pyrazole-4-sulfonamide] | ≤ 0.1 µM | –
O=S(=O)(CC1CC1)NCc1ccc2c(c1)C(Cc1ccccc1)C(N1CCOCC1)CC2 (stereo not shown) [Example 259, N-{[8-Benzyl-7-(morpholin-4-yl)-5,6,7,8-tetrahydronaphthalen-2-yl]methyl}-1-cyclopropylmethanesulfonamide] | ≤ 1 µM | –
O=S(=O)(NCc1ccc2c(c1)C(Cc1ccccc1)C(N1CCOCC1)CC2)C1CCC1 (stereo not shown) [Example 261, N-{[8-Benzyl-7-(morpholin-4-yl)-5,6,7,8-tetrahydronaphthalen-2-yl]methyl}cyclobutanesulfonamide] | ≤ 1 µM | –
Cn1cnc(S(=O)(=O)NCc2ccc3c(c2)C(Cc2ccccc2)C(N2CCCC2)CC3)c1 (stereo not shown) [Example 262, N-{[8-Benzyl-7-(pyrrolidin-1-yl)-5,6,7,8-tetrahydronaphthalen-2-yl]methyl}-1-methyl-1H-imidazole-4-sulfonamide] | ≤ 0.1 µM | –
Cn1cnc(S(=O)(=O)NCc2ccc3c(c2)C(Cc2ccccc2)C(N2CCCC2=O)CC3)c1 (stereo not shown) [Example 263, N-{[8-Benzyl-7-(2-oxopyrrolidin-1-yl)-5,6,7,8-tetrahydronaphthalen-2-yl]methyl}-1-methyl-1H-imidazole-4-sulfonamide] | ≤ 1 µM | –
CCCS(=O)(=O)NCCCc1ccc2c(c1)C(Cc1cccc(Cl)c1)C(N1CCCC1)CC2 (stereo not shown) [Example 264, N-{3-[8-(3-Chlorobenzyl)-7-(pyrrolidin-1-yl)-5,6,7,8-tetrahydronaphthalen-2-yl]propyl}propane-1-sulfonamide hydrochloride] | ≤ 1 µM | –
CCCS(=O)(=O)NCCCc1ccc2c(c1)C(Cc1ccccc1)C(N1CCCC1)CC2 (stereo not shown) [Example 265, Propane-1-sulfonic acid [3-(8-benzyl-7-pyrrolidin-1-yl-5,6,7,8-tetrahydro-naphthalen-2-yl)propyl]-amide hydrochloride] | ≤ 1 µM | –
O=S(=O)(CC1CC1)NCCCc1ccc2c(c1)C(Cc1ccccc1)C(N1CCCC1)CC2 (stereo not shown) [Example 266, N-{3-[8-Benzyl-7-(pyrrolidin-1-yl)-5,6,7,8-tetrahydronaphthalen-2-yl]propyl}-1-cyclopropylmethanesulfonamide hydrochloride] | ≤ 1 µM | –
Cn1ccc(S(=O)(=O)NCCOc2ccc3c(c2)C(Cc2cccc(F)c2)C(N2CCCC2)CC3)c1 (stereo not shown) [Example 267, N-(2-{[8-(3-Fluorobenzyl)-7-(pyrrolidin-1-yl)-5,6,7,8-tetrahydronaphthalen-2-yl]oxy}ethyl)-1-methyl-1H-pyrrole-3-sulfonamide] | ≤ 0.1 µM | –
Cn1ccc(S(=O)(=O)NCCOc2ccc3c(c2)C(Cc2ccccc2)C(N2CCC2)CC3)c1 (stereo not shown) [Example 268, N-(2-{[7-(Azetidin-1-yl)-8-benzyl-5,6,7,8-tetrahydronaphthalen-2-yl]oxy}ethyl)-1-methyl-1H-pyrrole-3-sulfonamide] | ≤ 0.01 µM | –
Cn1ccc(S(=O)(=O)NCCOc2ccc3c(c2)C(Cc2cccc(F)c2)C(N2CCC2)CC3)c1 (stereo not shown) [Example 269, 1-Methyl-1H-pyrrole-3-sulfonic acid {2-[7-azetidin-1-yl-8-(3-fluoro-benzyl)-5,6,7,8-tetrahydro-naphthalen-2-yloxy]-ethyl}-amide] | ≤ 0.01 µM | –
Cn1ccc(S(=O)(=O)NCCOc2ccc3c(c2)C(Cc2cc(F)cc(F)c2)C(NC=O)CC3)c1 (stereo not shown) [Example 271, N-(2-{[8-(3,5-Difluorobenzyl)-7-(formylamino)-5,6,7,8-tetrahydronaphthalen-2-yl]oxy}ethyl)-1-methyl-1H-pyrrole-3-sulfonamide] | ≤ 0.1 µM | –
CCCS(=O)(=O)NCCCc1ccc2c(c1)C(Cc1ccc(Cl)c(Cl)c1)C(NC(C)C)CC2 (stereo not shown) [Example 272, N-{3-[8-(3,4-Dichlorobenzyl)-7-(propan-2-ylamino)-5,6,7,8-tetrahydronaphthalen-2-yl]propyl}propane-1-sulfonamide] | ≤ 0.1 µM | –
CCCS(=O)(=O)NCCCc1ccc2c(c1)C(Cc1ccccc1)C(NC(C)C)CC2 (stereo not shown) [Example 273, N-{3-[8-Benzyl-7-(propan-2-ylamino)-5,6,7,8-tetrahydronaphthalen-2-yl]propyl}propane-1-sulfonamide hydrochloride] | ≤ 1 µM | –
CCN(CC)C1CCc2ccc(CCCNS(=O)(=O)CC3CC3)cc2C1Cc1ccc(Cl)cc1 (stereo not shown) [Example 274, N-{3-[8-(4-Chlorobenzyl)-7-(diethylamino)-5,6,7,8-tetrahydronaphthalen-2-yl]propyl}-1-cyclopropylmethanesulfonamide hydrochloride] | ≤ 0.1 µM | –
CCCS(=O)(=O)N(C)Cc1ccc2c(c1)C(Cc1ccccc1)C(NC)CC2 (stereo not shown) [Example 275, N-{[8-Benzyl-7-(methylamino)-5,6,7,8-tetrahydronaphthalen-2-yl]methyl}-N-methylpropane-1-sulfonamide trifluoroacetate] | ≤ 0.1 µM | –

Structure (SMILES) | Ki [1] | Ki
CCCS(=O)(=O)NCC#Cc1ccc2c(c1)C(Cc1ccccc1)C(NC(C)=O)CC2 (stereo not shown) [Example 276, N-[1-Benzyl-7-{3-[(propylsulfonyl)amino]prop-1-yn-1-yl}-1,2,3,4-tetrahydronaphthalen-2-yl]acetamide] | ≤ 10 µM | –
CCCS(=O)(=O)N(CCOc1ccc2c(c1)C(Cc1cccc(Cl)c1)C(NC(=O)OCC)CC2)C1CC1 (stereo not shown) [Example 279] | – | ≤ 10 µM
CCCS(=O)(=O)N(CCOc1ccc2c(c1)C(Cc1ccccc1)C(NC(=O)OCC)CC2)C1CC1 (stereo not shown) [Example 280] | ≤ 10 µM | –
CCCS(=O)(=O)N(CCOc1ccc2c(c1)C(Cc1cccc(Cl)c1)C(N)CC2)C1CC1 (stereo not shown) [Example 281, Propane-1-sulfonic acid {2-[7-amino-8-(3-chloro-benzyl)-5,6,7,8-tetrahydro-naphthalen-2-yloxy]-ethyl}-cyclopropyl-amide hydrochloride] | ≤ 0.1 µM | –
CCCS(=O)(=O)N(CCOc1ccc2c(c1)C(Cc1ccccc1)C(N)CC2)C1CC1 (stereo not shown) [Example 282, Propane-1-sulfonic acid [2-(7-amino-8-benzyl-5,6,7,8-tetrahydro-naphthalen-2-yloxy)ethyl]-cyclopropyl-amide hydrochloride] | ≤ 0.1 µM | –
CCCS(=O)(=O)N1CC(c2ccc3c(c2)C(Cc2cccc(Cl)c2)C(N)CC3)C1 (stereo not shown) [Example 283, 1-(3-Chloro-benzyl)-7-[1-(propane-1-sulfonyl)-azetidin-3-yl]-1,2,3,4-tetrahydro-naphthalen-2-ylamine hydrochloride] | ≤ 1 µM | –
CCCS(=O)(=O)N1CC(c2ccc3c(c2)C(Cc2ccccc2)C(N)CC3)C1 (stereo not shown) [Example 284, 1-Benzyl-7-[1-(propane-1-sulfonyl)-azetidin-3-yl]-1,2,3,4-tetrahydro-naphthalen-2-ylamine hydrochloride] | ≤ 1 µM | –
CCCS(=O)(=O)N1CC(COc2ccc3c(c2)C(Cc2cccc(Cl)c2)C(NC(=O)OCC)CC3)C1 (stereo not shown) [Example 285, {1-(3-Chloro-benzyl)-7-[1-(propane-1-sulfonyl)-azetidin-3-ylmethoxy]-1,2,3,4-tetrahydronaphthalen-2-yl}-carbamic acid ethyl ester] | ≤ 10 µM | –
CCCS(=O)(=O)N1CC(COc2ccc3c(c2)C(Cc2cccc(Cl)c2)C(N)CC3)C1 (stereo not shown) [Example 286, 1-(3-Chloro-benzyl)-7-[1-(propane-1-sulfonyl)-azetidin-3-ylmethoxy]-1,2,3,4-tetrahydronaphthalen-2-ylamine hydrochloride] | ≤ 10 µM | –
CCOC(=O)NC1CCc2ccc(OCCNS(=O)(=O)CC3CC3)cc2C1Cc1cccc(Cl)c1 (stereo not shown) [Example 287, [1-(3-Chloro-benzyl)-7-(2-cyclopropylmethanesulfonylamino-ethoxy)-1,2,3,4-tetrahydronaphthalen-2-yl]-carbamic acid ethyl ester] | ≤ 10 µM | –
NC1CCc2ccc(OCCNS(=O)(=O)CC3CC3)cc2C1Cc1cccc(Cl)c1 (stereo not shown) [Example 288, N-{2-[7-Amino-8-(3-chloro-benzyl)-5,6,7,8-tetrahydro-naphthalen-2-yloxy]-ethyl}-C-cyclopropyl-methanesulfonamide hydrochloride] | ≤ 0.01 µM | –
CCOC(=O)NC1CCc2ccc(OCC3CN(S(=O)(=O)CC4CC4)C3)cc2C1Cc1cccc(Cl)c1 (stereo not shown) [Example 289, [1-(3-Chloro-benzyl)-7-(1-cyclopropylmethanesulfonyl-azetidin-3-ylmethoxy)-1,2,3,4-tetrahydro-naphthalen-2-yl]-carbamic acid ethyl ester] | > 10 µM | –
CCOC(=O)NC1CCc2ccc(OCCN(C)S(=O)(=O)CC3CC3)cc2C1Cc1cccc(Cl)c1 (stereo not shown) [Example 290, {1-(3-Chloro-benzyl)-7-[2-(cyclopropylmethanesulfonyl-methyl-amino)-ethoxy]-1,2,3,4-tetrahydro-naphthalen-2-yl}-carbamic acid ethyl ester] | ≤ 10 µM | –
CN(CCOc1ccc2c(c1)C(Cc1cccc(Cl)c1)C(N)CC2)S(=O)(=O)CC1CC1 (stereo not shown) [Example 291, N-{2-[7-Amino-8-(3-chloro-benzyl)-5,6,7,8-tetrahydro-naphthalen-2-yloxy]-ethyl}-C-cyclopropyl-N-methyl-methanesulfonamide] | ≤ 0.01 µM | –
CCCS(=O)(=O)N1CC(COc2ccc3c(c2)C(Cc2ccccc2)C(N)CC3)C1 (stereo not shown) [Example 292, 1-Benzyl-7-[1-(propane-1-sulfonyl)-azetidin-3-ylmethoxy]-1,2,3,4-tetrahydro-naphthalen-2-ylamine hydrochloride] | ≤ 1 µM | –
CCCS(=O)(=O)NCCOc1ccc2c(c1)C(Cc1ccccc1Cl)C(N)CC2 (stereo not shown) [Example 293, Propane-1-sulfonic acid {2-[7-amino-8-(2-chloro-benzyl)-5,6,7,8-tetrahydro-naphthalen-2-yloxy]-ethyl}-amide hydrochloride] | ≤ 1 µM | –
NC1CCc2ccc(OCCNS(=O)(=O)C3CC3)cc2C1Cc1ccccc1Cl (stereo not shown) [Example 294, Cyclopropanesulfonic acid {2-[7-amino-8-(2-chloro-benzyl)-5,6,7,8-tetrahydro-naphthalen-2-yloxyl]-ethyl}-amide hydrochloride] | ≤ 10 µM | –

Source: US9067871B2, “Aminotetraline derivatives, pharmaceutical compositions containing them, and their use in therapy” (ABBVIE DEUTSCHLAND GMBH & CO KG, priority 2009, dated 2015)
